In US20250262201A1, “COMPOUNDS AND METHODS USEFUL FOR STABILIZING PHENYLALANINE HYDROXYLASE MUTATIONS” (Agios Pharmaceuticals, Inc., priority 2022, published 2025):
Counter-ions that a name gives are not always drawn.

molecular target: T1, human PAH with the R408W mutation (Homo sapiens, UniProt P00439, R408W); experiment: Cell Based Phenylalanine Flux Assay; design: scale not given here; conditions: A375 R408W cells, 24 hrs with compound, then 20 μM sepiapterin and 800 μM 13C9,15N-Phenylalanine for 4 hours; 13C-Tyrosine by LC-MS; average where tested multiple times
T1 construct: expressed in transfected cells
T1 sequence (P00439 1-452 R408W): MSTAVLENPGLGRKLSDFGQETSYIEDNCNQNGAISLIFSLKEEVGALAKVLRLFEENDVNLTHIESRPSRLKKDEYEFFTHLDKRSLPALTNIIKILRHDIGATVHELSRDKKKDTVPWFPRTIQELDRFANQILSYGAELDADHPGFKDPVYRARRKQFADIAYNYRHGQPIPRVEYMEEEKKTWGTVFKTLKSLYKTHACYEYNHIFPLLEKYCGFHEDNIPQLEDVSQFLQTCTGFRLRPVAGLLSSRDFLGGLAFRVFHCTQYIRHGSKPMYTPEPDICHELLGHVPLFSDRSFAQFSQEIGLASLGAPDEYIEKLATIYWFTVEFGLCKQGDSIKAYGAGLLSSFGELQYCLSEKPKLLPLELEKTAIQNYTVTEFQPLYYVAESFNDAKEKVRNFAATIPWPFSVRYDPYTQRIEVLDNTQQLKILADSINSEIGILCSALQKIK

In the case of Cc1ncoc1C(=O)N1CC(C)c2[nH]cnc2C1c1cc2ccccc2cn1 [(4S, 7S) diastereomer of 3-[7-methyl-5-(4-methyl-1,3-oxazole], the AC50 is reported as “E, E”.
In the case of Cc1nnc(C(=O)N2CC(C)c3[nH]cnc3C2c2cc3ccccc3cn2)o1 [(4S, 7S) diastereomer of 3-[7-methyl-5-(5-methyl-1,3,4-oxadi], the AC50 is reported as “E, E”.
With CC1CN(C(=O)c2nnc(N3CCN(C)CC3)o2)C(c2cc3ccccc3cn2)c2nc[nH]c21 [(4S, 7S) diastereomer of 3-[7-methyl-5-[5-(4-methylpiperazin] the AC50 was “E, E”.
COCCNc1nnc(C(=O)N2CC(C)c3[nH]cnc3C2c2cc3ccccc3cn2)o1 [(4S, 7S) diastereomer of 5-[4-(isoquinolin-3-yl)-7-methyl-1H] was tested, and the AC50 was “E, E”.
In the case of CC1CN(C(=O)c2oc(C(C)(C)O)nc2C(F)(F)F)C(c2cc3ccccc3cn2)c2nc[nH]c21 [(4S, 7S) diastereomer of (2-(2-hydroxypropan-2-yl)-4-(triflu], the AC50 is reported as “E, E”.
In the case of CC1CN(C(=O)c2oc(-c3ccccn3)nc2C(F)(F)F)C(c2cc3ccccc3cn2)c2nc[nH]c21 [(4S, 7S) diastereomer of (4-(isoquinolin-3-yl)-7-methyl-6,7-], the AC50 is reported as “E, E”.

same assay, conditions: A375 cells expressing human R408W PAH; 24 hrs compound incubation; 13C-Tyrosine by LC-MS; average where tested multiple times; read-out: AC50

O=C(c1nnc(-c2ccc(F)cc2)o1)N1CCc2[nH]cnc2[C@@H]1c1ccc2ccccc2n1 [Example 12] and O=C(c1nnc(-c2c(F)cccc2F)o1)N1CCc2[nH]cnc2[C@@H]1c1ccc2ccccc2n1 [Example 24] cannot be ordered by AC50: > 5000 nM for the first, > 5000 nM for the second.

First: Cc1nc(C(C)(C)O)oc1C(=O)N1CCc2[nH]cnc2[C@H]1c1ccc2ccccc2n1 [Example 13]
Second: Cc1nc(C(C)(C)O)oc1C(=O)N1CCc2[nH]cnc2[C@H]1c1ncc2ccccc2n1 [Example 141, (S)-(2-(2-hydroxypropan-2-yl)-4-methyloxazol-5-yl)(4-(quinazolin-2-yl)-6,7-dihydro-1H-imidazo[4,5-c]pyridin-5(4H)-yl)methanone hydrochloride]
The AC50 of the first is higher: 1000 to 5000 nM for the first, < 500 nM for the second.

Going from Cc1nc(-c2cnn(C)c2)oc1C(=O)N1CCc2[nH]cnc2[C@H]1c1ccc2ccccc2n1 [Example 26] to Cn1ncnc1C(=O)N1CCc2[nH]cnc2[C@@H]1c1ccc2ccccc2n1 [Example 79], the AC50 rises from < 500 nM to > 5000 nM.

First: O=C(c1oc(-c2ccccn2)nc1C(F)F)N1CCc2[nH]cnc2[C@@H]1c1ccc2ccccc2n1 [Example 66]
Second: O=C(c1nnc(-c2ccn(C(F)F)n2)o1)N1CCc2[nH]cnc2[C@H]1c1ccc2ccccc2n1 [Example 96]
The AC50 of the first is higher: 1000 to 5000 nM for the first, 500 to 1000 nM for the second.

First: Cn1cc(C(=O)N2CCc3[nH]cnc3[C@@H]2c2ccc3ccccc3n2)c(Cl)n1 [Example 87]
Second: COCc1ccc2c(C(=O)N3CCc4[nH]cnc4[C@H]3c3ncc4ccccc4n3)cnn2c1 [Example 153]
The AC50 of the first is higher: 1000 to 5000 nM for the first, 500 to 1000 nM for the second.

First: O=C(c1nnc(C2CC2)o1)N1CCc2[nH]cnc2[C@H]1c1ncc2ccccc2n1 [Example 139, (S)-(5-cyclopropyl-1,3,4-oxadiazol-2-yl)(4-(quinazolin-2-yl)-6,7-dihydro-1H-imidazo[4,5-c]pyridin-5(4H)-yl)methanone]
Second: O=C(c1nnc(C2CC2)o1)N1CCc2[nH]cnc2[C@@H]1c1ncc2ccccc2n1 [Example 140, (R)-(5-cyclopropyl-1,3,4-oxadiazol-2-yl)(4-(quinazolin-2-yl)-6,7-dihydro-1H-imidazo[4,5-c]pyridin-5(4H)-yl)methanone]
The AC50 of the first is lower: 500 to 1000 nM for the first, > 5000 nM for the second.

Going from Cc1nc(C(C)(C)O)oc1C(=O)N1CCc2[nH]cnc2[C@@H]1c1ncc2ccccc2n1 [Example 142, (R)-(2-(2-hydroxypropan-2-yl)-4-methyloxazol-5-yl)(4-(quinazolin-2-yl)-6,7-dihydro-1H-imidazo[4,5-c]pyridin-5(4H)-yl)methanone hydrochloride] to N#Cc1ncoc1C(=O)N1CCc2[nH]cnc2[C@H]1c1ncc2ccccc2n1 [Example 147, (S)-5-(4-(quinazolin-2-yl)-4,5,6,7-tetrahydro-1H-imidazo[4,5-c]pyridine-5-carbonyl)oxazole-4-carbonitrile], the AC50 falls from > 5000 nM to < 500 nM.

Compared with Cn1cc(-c2nnc(C(=O)N3CCc4[nH]cnc4[C@H]3c3ncc4ccccc4n3)o2)cn1 [Example 143, (S)-(5-(1-methyl-1H-pyrazol-4-yl)-1,3,4-oxadiazol-2-yl)(4-(quinazolin-2-yl)-6,7-dihydro-1H-imidazo[4,5-c]pyridin-5(4H)-yl)methanone], Cn1cc(-c2nnc(C(=O)N3CCc4[nH]cnc4[C@@H]3c3ncc4ccccc4n3)o2)cn1 [Example 144, (R)-(5-(1-methyl-1H-pyrazol-4-yl)-1,3,4-oxadiazol-2-yl)(4-(quinazolin-2-yl)-6,7-dihydro-1H-imidazo[4,5-c]pyridin-5(4H)-yl)methanone] is higher in AC50: 500 to 1000 nM for the first, > 5000 nM for the second.

First: O=C(c1nnc(-c2ccccn2)o1)N1CCc2[nH]cnc2[C@H]1c1ncc2ccccc2n1 [Example 145, (S)-(5-(pyridin-2-yl)-1,3,4-oxadiazol-2-yl)(4-(quinazolin-2-yl)-6,7-dihydro-1H-imidazo[4,5-c]pyridin-5(4H)-yl)methanone]
Second: O=C(c1nnc(-c2ccccn2)o1)N1CCc2[nH]cnc2[C@@H]1c1ncc2ccccc2n1 [Example 146, (R)-(5-(pyridin-2-yl)-1,3,4-oxadiazol-2-yl)(4-(quinazolin-2-yl)-6,7-dihydro-1H-imidazo[4,5-c]pyridin-5(4H)-yl)methanone]
The AC50 of the first is lower: < 500 nM for the first, 1000 to 5000 nM for the second.

Compared with N#Cc1ncoc1C(=O)N1CCc2[nH]cnc2[C@@H]1c1ncc2ccccc2n1 [Example 148, (R)-5-(4-(quinazolin-2-yl)-4,5,6,7-tetrahydro-1H-imidazo[4,5-c]pyridine-5-carbonyl)oxazole-4-carbonitrile], O=C(c1cnco1)N1CCc2[nH]cnc2[C@H]1c1ncc2ccccc2n1 [Example 149, (S)-oxazol-5-yl(4-(quinazolin-2-yl)-6,7-dihydro-1H-imidazo[4,5-c]pyridin-5(4H)-yl)methanone] is lower in AC50: 1000 to 5000 nM for the first, < 500 nM for the second.

O=C(c1cnco1)N1CCc2[nH]cnc2[C@@H]1c1ncc2ccccc2n1 [Example 150, (R)-oxazol-5-yl(4-(quinazolin-2-yl)-6,7-dihydro-1H-imidazo[4,5-c]pyridin-5(4H)-yl)methanone] and COCc1ccc2c(C(=O)N3CCc4[nH]cnc4[C@@H]3c3ncc4ccccc4n3)cnn2c1 [Example 154, (R)-(6-(methoxymethyl)pyrazolo[1,5-a]pyridin-3-yl)(4-(quinazolin-2-yl)-6,7-dihydro-1H-imidazo[4,5-c]pyridin-5(4H)-yl)methanone] cannot be ordered by AC50: > 5000 nM for the first, > 5000 nM for the second.

First: O=C(c1nnc(C2CC(F)(F)C2)o1)N1CCc2[nH]cnc2[C@H]1c1ncc2ccccc2n1 [Example 151, (S)-(5-(3,3-difluorocyclobutyl)-1,3,4-oxadiazol-2-yl)(4-(quinazolin-2-yl)-6,7-dihydro-1H-imidazo[4,5-c]pyridin-5(4H)-yl)methanone]
Second: O=C(c1nnc(C2CC(F)(F)C2)o1)N1CCc2[nH]cnc2[C@@H]1c1ncc2ccccc2n1 [Example 152, (R)-(5-(3,3-difluorocyclobutyl)-1,3,4-oxadiazol-2-yl)(4-(quinazolin-2-yl)-6,7-dihydro-1H-imidazo[4,5-c]pyridin-5(4H)-yl)methanone]
The AC50 of the first is lower: 500 to 1000 nM for the first, > 5000 nM for the second.

For CN(C)Cc1ccc2c(C(=O)N3CCc4[nH]cnc4[C@H]3c3ncc4ccccc4n3)cnn2c1 [Example 155, (S)-(6-((dimethylamino)methyl)pyrazolo[1,5-a]pyridin-3-yl)(4-(quinazolin-2-yl)-6,7-dihydro-1H-imidazo[4,5-c]pyridin-5(4H)-yl)methanone], the AC50 was 500 to 1000 nM.
